What was measured:
[1] = Release kinetics of antibiotics from nanofiber-hydrogel composite sheet (HPLC); assay type: physicochemical
From the text: A sheet device was designed with the goal of reinforcing the implant soft tissue pocket, as well as serving as a platform for the local delivery of antibiotics. The device was composed of a polycaprolactone (PCL) nanofiber sheet core embedded within a nanofiber-hydrogel composite scaffold. The nanofiber core was created via random-pattern electrospinning of PCL dissolved in an organic solvent. An antibiotic-containing version was created by adding 1% w/w of linezolid and rifampicin to the starting PCL solution. All materials containing rifampicin were protected from light exposure to minimize risk of degradation. Next a composite scaffold was prepared by interfacially bonding 500-nm PCL nanofibers suspended within a hyaluronic acid matrix. The nanofiber sheet was then embedded within the composite scaffold and shaped to form a 1-mm thick sheet device. Release kinetics of each antibiotic were assessed using high-performance liquid chromatography (HPLC).

[2] = In vitro release of antibiotics from PLGA/PCL composite coatings on titanium K-wires (HPLC); assay type: physicochemical; conditions: for release kinetics after storage: stored coated pins, two-week in vitro release
Protocol: (§1) The release rate of the polymer composite film was measured by HPLC. Drug release studies were conducted using coated pins created with the same loading parameters as those used for later in vivo testing (10% (w/w) drug combinations) electrospun for 60 seconds at injection rates of 0.5 mL/h from each needle. Release rate of antibiotics from the composite polymer coating was characterized by placing coated pins in 200 μL pH 7.4 PBS buffer and incubating at 37° C. in an aluminum film-covered incubator to prevent possible light-induced drug degradation. Release media was changed at fixed time points over a period of two weeks and stored in a −20° C. freezer until analysis. Drug concentrations in release media for each day were determined via reverse-phase HPLC using a C-18 column in an Alliance HPLC system and Waters 2996 PDA detector. The mobile phase was a mixture of acetonitrile and water both mixed with 0.1% TFA acid, which was run at a gradient from (15%/85%) to (40%/60%) for a total runtime of 15 minutes per sample for the elution of Van/Rif and Lin/Rif drug loading groups. Elution of the Dap/Rif loading group was conducted using a mobile phase of (49%/51%) of acetonitrile and water both mixed with 0.1% TFA acid for a total run time of 11 minutes per sample. Concentrations of the drugs were quantified using wavelengths of 343 nm for Rif, 254 nm for Lin, 280 nm for Van and 223 nm for Dap using prepared standard curves for all three drugs. […] Quantification was performed through the derivatization of Gentamicin with ninhydrin at 95° C. for 15 minutes and detection with a Biotek Synergy2 plate reader.
(§2) Long-term efficacy of the antimicrobial activity was tested by storing electrospun pins at room temperature for 6 weeks, −20° C. for 6 weeks, and −80° C. for 8 months. Coated pins were protected from light during storage. These pins were then used in the same zone of inhibition assay as described hereinabove.
Drug release studies were conducted using coated pins created with the same loading parameters as detailed above. Release kinetics of antibiotics from the composite coating were characterized by placing coated pins in 200 μL of phosphate buffer saline (PBS, pH 7.4) at 37° C. Release media was changed daily over a period of two weeks and stored at −20° C. until analysis. Drug concentrations in release media were measured on days 1, 2, 3, 5, 7, 10 and 14 using a Waters Alliance 2690 HPLC system (Waters Corporation, Milford, Mass.) equipped with an Accucore RP-MS C18 column (100 mm×2.1 mm; Thermo Fisher Scientific) and a Waters 2996 PDA detector. The elution was carried out with a mobile phase of water and acetonitrile both mixed with 0.1% TFA at a flow rate of 1 mL/min at ambient temperature using a linear gradient elution program of 85% water to […] in 15 minutes. Concentrations of the drugs were quantified using wavelengths for Van (280 nm), Lin (254 nm), Dap (224 nm) and Rif (263 nm).

S. aureus = experiment: In vitro zone of inhibition assay of coated K-wires; assay type: cell-based, Staphylococcus aureus; conditions: 6 weeks room temperature, 6 weeks −20° C., 8 months
From the text: A zone of inhibition assay was used as an additional assay to evaluate the in vitro release of antibiotic(s) from the composite coating. Tryptic soy agar bacterial plates were inoculated with S. aureus bacteria cells to yield a bacterial lawn after overnight culture. After bacterial inoculation and before culturing the plates, two identical titanium K-wires loaded with either 10 w/w % Lin, 10 w/w % Van, or 10 w/w % Dap alone, or in combination with Rif were placed in two separate areas on the plate. After culturing the plates at 37° C. for 24 hours, the antimicrobial activity of the eluded antibiotic(s) into the agar was measured as a zone of inhibition (diameter [mm]) of the bacterial growth around the K-wire.
as §2, with “hereinabove. These antimicrobial results were further confirmed with a two-week in vitro release study to determine release kinetics after storage.” for “hereinabove.”
Tryptic soy agar (TSA) bacterial plates were inoculated with S. aureus to yield a bacterial lawn after overnight culture. Before culturing the plates, two titanium K-wires each loaded with the same combination of antibiotics from each set were placed in two separate areas on the plate. After culturing at 37° C. for 24 hours, the zone of inhibition (ZOI) (diameter/mm) of bacterial growth were measured.

S. aureus strain Xen36 = experiment: MIC of XEN36 for each antibiotic; assay type: cell-based, Staphylococcus aureus; conditions: S. aureus XEN36; for MIC: Staphylococcus aureus, read-out: MIC of XEN36
Protocol: S. aureus strain Xen36 (PerkinElmer, Waltham, Mass.) previously derived from the clinical bacteremia isolate ATCC 49525 (Wright) was used in all experiments. (Francis et al., 2000). […] (Francis et al., 2000). Xen36 was prepared for inoculation as previously described. (Niska et al., 2013; Pribaz et al. (2012)).

[3] = In vitro release of Gentamicin from PLGA nanofibers / composite coating (ninhydrin); assay type: physicochemical
Protocol: The drug groups tested all included Rifampin (Rif), and the second drug was varied among linezolid (Lin), vancomycin (Van), and daptomycin (Dap). Each drug group combination of Rif and a secondary drug was tested with five pin groups as shown in Sets 1-3 (FIG. 1E). To load the antibiotics into the polymer nanofibers or film, Rif and Lin were dissolved in corresponding 10% w/w PLGA or PCL polymer solution prior to electrospinning. Van or Dap was first dissolved in dimethyl sulfoxide (DMSO) to form a 20% (w/w) solution before being added into their respective polymer solutions to form a suspension. This suspension can be electrospun in a relatively uniform fashion. Suspensions using water as a solvent were also produced using the model drug Gentamicin (Gent). Briefly, Gent was dissolved in DI water to form a 30% (w/w) solution before being added to a PLGA solution dissolved in HFIP. The suspension was stabilized through prolonged sonication and vortexing prior to electrospinning.
as §1, with “drugs. As an example, FIG. 3A and FIG. 3B show the in vitro release profiles of Lin and Rif from the composite coating on titanium K-wire implants.” for “drugs.”

| Compound | complete release from the nanofiber-hydrogel composite sheet [1] | release from the nanofiber-hydrogel composite sheet within the first 24 hours [1] | release kinetics after storage [2] | antimicrobial activity (zone of inhibition) after storage versus freshly prepared coatings (S. aureus) | MIC (S. aureus strain Xen36) | time Rif remains above the MIC, tuned by PCL molecular weight or PCL layer thickness ([2]; in vitro release from composite coating) | Gentamicin release profile ([3]; 50:50 PLGA) | release of Gentamicin above the MIC, controlled by polymer choice ([3]; 50:50 versus 75:25 PLGA) | Gentamicin release profile ([3]; 75:25 PLGA) | Day 1 release of Gentamicin ([3]; PLGA nanofibers alone) | Day 1 release of Gentamicin ([3]; PLGA nanofibers embedded in PCL film layer) | time Gentamicin concentration at MIC could be sustained ([3]; in vitro release from PLGA nanofibers) | MIC of XEN36 (S. aureus strain Xen36) |
| --- | --- | --- | --- | --- | --- | --- | --- | --- | --- | --- | --- | --- | --- |
| CC(=O)NC[C@H]1CN(c2ccc(N3CCOCC3)c(F)c2)C(=O)O1 [Lin, linezolid] | ≤ 3 days | 70% | no difference in the release kinetics | no significant loss of antimicrobial activity | 2 µg/mL | – | – | – | – | – | – | – | – |
| CO[C@H]1/C=C/O[C@@]2(C)Oc3c(C)c(O)c4c(O)c(c(/C=N/N5CCN(C)CC5)c(O)c4c3C2=O)NC(=O)/C(C)=C\C=C\[C@H](C)[C@H](O)[C@@H](C)[C@@H](O)[C@@H](C)[C@H](OC(C)=O)[C@@H]1C [Rif, Rifampin] | ≤ 14 days | 70% | reduced after storage at room temperature for six weeks, but not when the pins were stored at −20 °C | no significant loss of antimicrobial activity | 0.5 µg/mL | 2 to 5 days | – | – | – | – | – | – | – |
| Gentamicin | – | – | – | – | – | – | sustained release | 2 to 14 days | only a burst release | 80 % of total loading | less than 45 % of total loading | up to 14 days | roughly 10 μg/mL |
| CCCCCCCCCC(=O)N[C@@H](Cc1c[nH]c2ccccc12)C(=O)N[C@H](CC(N)=O)C(=O)N[C@@H](CC(=O)O)C(=O)N[C@@H]1C(=O)NCC(=O)N[C@@H](CCCN)C(=O)N[C@@H](CC(=O)O)C(=O)N[C@H](C)C(=O)N[C@@H](CC(=O)O)C(=O)NCC(=O)N[C@H](CO)C(=O)N[C@@H]([C@H](C)CC(=O)O)C(=O)N[C@@H](CC(=O)c2ccccc2N)C(=O)O[C@@H]1C [Dap, daptomycin] | – | – | no difference in the release kinetics | no significant loss of antimicrobial activity | 0.25 µg/mL | – | – | – | – | – | – | – | – |

— patent US20210322622A1, “COMPOSITIONS AND METHODS FOR PREPARATION OF COMPOSITE POLYMER FILMS ON NON-CONDUCTING SUBSTRATES, INCLUDING BANDAGES, AND THEIR USE FOR TREATING WOUNDS” (The Johns Hopkins University, priority 2018, published 2021)
